# In ChEMBL document CHEMBL4038307, “Influence of a Basic Side Chain on the Properties of Hypoxia-Selective Nitro Analogues of the Duocarmycins: Demonstration of Substantial Anticancer Activity in Combination with Irradiation or Chemotherapy” (J Med Chem, 2017):
# Active and inactive are the calls of the source. The rule behind the calls is not given here.
# Experiments:
# HT-29 [1] = assay: Cytotoxicity against human HT-29 cells incubated for 4 hrs under oxic condition measured after 5 days by SRB assay; type: functional, cell-based
# SiHa [2] = assay: Cytotoxicity against human SiHa cells incubated for 4 hrs under oxic condition measured after 5 days by SRB assay; type: functional, cell-based
# SiHa [3] = assay: Ratio of IC50 for human SiHa cells under oxic condition to IC50 for human SiHa cells under hypoxic condition; type: functional
# SiHa [4] = assay: Cytotoxicity against human SiHa cells incubated for 4 hrs under hypoxic condition measured after 5 days by SRB assay; type: functional, cell-based
# HT-29 [5] = assay: Ratio of IC50 for human HT-29 cells under oxic condition to IC50 for human HT-29 cells under hypoxic condition; type: functional
# HT-29 [6] = assay: Cytotoxicity against human HT-29 cells incubated for 4 hrs under hypoxic condition measured after 5 days by SRB assay; type: functional, cell-based
# SiHa [7] = assay: Antitumor activity against human SiHa cells xenografted in CD-1 Foxn1 nude mouse assessed as log reduction in colony forming cells under hypoxic condition at 42 umol/kg, iv treated 5 mins after gamma irradiation measured after 18 hrs by excision assay; type: functional
# NCI-H460 [8] = assay: Antitumor activity against human H460 cells xenografted in CD-1 Foxn1 nude mouse assessed as reduction in colony forming cells under hypoxic condition at 75 umol/kg, iv treated 5 mins after gamma irradiation measured after 18 hrs by excision assay; type: functional, organism-based
# NCI-H460 [9] = assay: Antitumor activity against human H460 cells xenografted in CD-1 Foxn1 nude mouse assessed as reduction in colony forming cells under hypoxic condition at 13.3 umol/kg, iv treated 5 mins after gamma irradiation measured after 18 hrs by excision assay; type: functional, organism-based
# HCT-116 = assay: Antitumor activity against human HCT116 cells xenografted in CD-1 Foxn1 nude mouse assessed as reduction in colony forming cells at 56 umol/kg, iv treated 5 mins after gamma irradiation measured after 18 hrs by excision assay; type: functional, organism-based
# NCI-H1299 = assay: Antitumor activity against human H1299 cells xenografted in CD-1 Foxn1 nude mouse assessed as reduction in colony forming cells at 75 umol/kg, iv treated 5 mins after gamma irradiation measured after 18 hrs by excision assay; type: functional, organism-based
# CWR22R = assay: Antitumor activity against human 22Rv1 cells xenografted in CD-1 Foxn1 nude mouse assessed as reduction in colony forming cells under hypoxic condition at 30 umol/kg, iv treated 5 mins after gamma irradiation measured after 18 hrs by excision assay; type: functional, organism-based
# Mus musculus [10] = assay: Toxicity in CD-1 Foxn1 nude mouse xenografted with human SiHa cells assessed as death at 75 umol/kg, iv; details: in vivo
# Mus musculus [11] = assay: Toxicity in CD-1 Foxn1 nude mouse xenografted with human H460 cells assessed as death at 75 umol/kg, iv; details: in vivo
# Mus musculus [12] = assay: Toxicity in CD-1 Foxn1 nude mouse xenografted with human SiHa cells assessed as death at 13 umol/kg, iv; details: in vivo
# Mus musculus [13] = assay: Toxicity in CD-1 Foxn1 nude mouse xenografted with human H460 cells assessed as death at 13 umol/kg, iv; details: in vivo
# NCI-H460 [14] = assay: Antitumor activity against human H460 cells xenografted in CD-1 Foxn1 nude mouse assessed as log reduction in colony forming cells under hypoxic condition at 56 umol/kg, iv treated 5 mins after gamma irradiation measured after 18 hrs by excision assay; type: functional
# NCI-H460 [15] = assay: Antitumor activity against human H460 cells xenografted in CD-1 Foxn1 nude mouse assessed as reduction in colony forming cells under hypoxic condition at 23.7 umol/kg, iv treated 5 mins after gamma irradiation measured after 18 hrs by excision assay; type: functional, organism-based
# SiHa [16] = assay: Antitumor activity against human SiHa cells xenografted in CD-1 Foxn1 nude mouse assessed as reduction in colony forming cells under hypoxic condition at 23.7 umol/kg, iv treated 5 mins after gamma irradiation measured after 18 hrs by excision assay; type: functional, organism-based
SMILES,Activity (HT-29 [1]),Activity (SiHa [2]),Ratio IC50 (SiHa [3]),Activity (SiHa [4]),Ratio IC50 (HT-29 [5]),Activity (HT-29 [6]),other results
Nc1cc2c(c3ccc(S(=O)(=O)NCCO)cc13)C(CCl)CN2C(=O)/C=C/c1ccc(OCCCN2CCOCC2)cc1 (stereo not given),Active,Active,1,Active,1,Active,
COc1cc2cc(C(=O)N3CC(CCl)c4c3cc(N)c3cc(S(=O)(=O)NCCO)ccc43)[nH]c2c(OC)c1OC (stereo not given),Active,Active,1,Active,1,Active,
O=C(NCCOP(=O)(O)O)c1ccc2c3c(cc([N+](=O)[O-])c2c1)N(C(=O)c1cc2cc(OCCN4CCOCC4)ccc2[nH]1)CC3CCl (stereo not given),,,,,,,Activity (SiHa [7]): >1
O=C(NCCOP(=O)(O)O)c1ccc2c3c(cc([N+](=O)[O-])c2c1)N(C(=O)/C=C/c1ccc(OCCN2CCOCC2)cc1)CC3CCl (stereo not given),,,,,,,Activity (NCI-H460 [8]): Active; Activity (SiHa [7]): Active
Nc1cc2c(c3ccc(S(=O)(=O)NCCO)cc13)C(CCl)CN2C(=O)c1ccc(OCCN2CCOCC2)cc1 (stereo not given),Active,Active,1,Active,1,Active,
O=C(c1ccc(OCCN2CCOCC2)cc1)N1CC(CCl)c2c1cc([N+](=O)[O-])c1cc(S(=O)(=O)NCCOP(=O)(O)O)ccc21 (stereo not given),,,,,,,Activity (NCI-H460 [9]): inactive; Activity (SiHa [7]): Active
O=C(/C=C/c1ccc(OCCCN2CCOCC2)cc1)N1CC(CCl)c2c1cc([N+](=O)[O-])c1cc(S(=O)(=O)NCCOP(=O)(O)O)ccc21 (stereo not given),,,,,,,Activity (NCI-H460 [8]): Active; Activity (SiHa [7]): Active
CN(C)CCOc1ccc2[nH]c(C(=O)N3CC(CCl)c4c3cc([N+](=O)[O-])c3cc(S(=O)(=O)NCCO)ccc43)cc2c1 (stereo not given),Active,,,,,Active,
Nc1cc2c(c3ccc(S(=O)(=O)NCCO)cc13)C(CCl)CN2C(=O)c1cc2cc(OCCN3CCOCC3)ccc2[nH]1 (stereo not given),Active,Active,1,Active,1,Active,
O=C(CCN1CCOCC1)N1CC(CCl)c2c1cc([N+](=O)[O-])c1cc(S(=O)(=O)NCCOP(=O)(O)O)ccc21 (stereo not given),,,,,,,Activity (NCI-H460 [8]): inactive; Activity (SiHa [7]): Active
O=C(c1cc2cc(OCCCN3CCOCC3)ccc2[nH]1)N1CC(CCl)c2c1cc([N+](=O)[O-])c1cc(S(=O)(=O)NCCO)ccc21 (stereo not given),,,,inactive,,inactive,
CN(C)CCOc1ccc2[nH]c(C(=O)N3CC(CCl)c4c3cc(N)c3cc(S(=O)(=O)NCCO)ccc43)cc2c1 (stereo not given),Active,Active,1,Active,1,Active,
CN(C)CCOc1ccc2[nH]c(C(=O)N3CC(CCl)c4c3cc([N+](=O)[O-])c3cc(C(=O)NCCOP(=O)(O)O)ccc43)cc2c1 (stereo not given),,,,,,,Activity (HCT-116): Active; Activity (SiHa [7]): Active; Activity (NCI-H1299): Active; Activity (CWR22R): Active
CN(C)CCOc1ccc2[nH]c(C(=O)N3CC(CCl)c4c3cc([N+](=O)[O-])c3cc(C(=O)NCCO)ccc43)cc2c1 (stereo not given),Active,,,,,Active,
CN(C)CCCOc1ccc2[nH]c(C(=O)N3CC(CCl)c4c3cc([N+](=O)[O-])c3cc(S(=O)(=O)NCCOP(=O)(O)O)ccc43)cc2c1 (stereo not given),,,,,,,Activity (HCT-116): Active; Activity (NCI-H1299): Active; Activity (CWR22R): Active
Nc1cc2c(c3ccc(S(=O)(=O)NCCO)cc13)C(CCl)CN2C(=O)CCN1CCOCC1 (stereo not given),Active,Active,1,Active,1,Active,
Nc1cc2c(c3ccc(S(=O)(=O)NCCO)cc13)C(CCl)CN2C(=O)c1cc2cc(OCCCN3CCOCC3)ccc2[nH]1 (stereo not given),Active,Active,1,Active,1,Active,

SMILES,Activity (HT-29 [1]),Activity (SiHa [2]),Ratio IC50 (SiHa [3]),Activity (SiHa [4]),Ratio IC50 (HT-29 [5]),Activity (HT-29 [6]),other results
CN(C)CCCOc1ccc2[nH]c(C(=O)N3CC(CCl)c4c3cc([N+](=O)[O-])c3cc(S(=O)(=O)NCCO)ccc43)cc2c1 (stereo not given),,,27 - 68,,27 - 68,,
CN(C)c1ccc2[nH]c(C(=O)N3CC(CCl)c4c3cc(N)c3cc(S(=O)(=O)NCCO)ccc43)cc2c1 (stereo not given),Active,Active,1,Active,1,Active,
CN(C)CCCOc1ccc2[nH]c(C(=O)N3CC(CCl)c4c3cc(N)c3cc(S(=O)(=O)NCCO)ccc43)cc2c1 (stereo not given),Active,Active,1,Active,1,Active,
CN(C)Cc1ccc2[nH]c(C(=O)N3CC(CCl)c4c3cc(N)c3cc(S(=O)(=O)NCCO)ccc43)cc2c1 (stereo not given),Active,Active,1,Active,1,Active,
CN(C)Cc1ccc2[nH]c(C(=O)N3CC(CCl)c4c3cc([N+](=O)[O-])c3cc(S(=O)(=O)NCCOP(=O)(O)O)ccc43)cc2c1 (stereo not given),,,,,,,Activity (NCI-H460 [8]): inactive; Activity (SiHa [7]): Active
CCN(CC)CCOc1ccc2[nH]c(C(=O)N3CC(CCl)c4c3cc([N+](=O)[O-])c3cc(S(=O)(=O)NCCO)ccc43)cc2c1 (stereo not given),,,27 - 68,,27 - 68,,
CCN(CC)CCOc1ccc2[nH]c(C(=O)N3CC(CCl)c4c3cc(N)c3cc(S(=O)(=O)NCCO)ccc43)cc2c1 (stereo not given),Active,Active,1,Active,1,Active,
CN(C)CC(=O)Nc1ccc2[nH]c(C(=O)N3CC(CCl)c4c3cc([N+](=O)[O-])c3cc(S(=O)(=O)NCCOP(=O)(O)O)ccc43)cc2c1 (stereo not given),,,,,,,Activity (Mus musculus [10]): Non-Toxic; Activity (Mus musculus [11]): Non-Toxic
CN(C)CCC(=O)Nc1ccc2[nH]c(C(=O)N3CC(CCl)c4c3cc([N+](=O)[O-])c3cc(S(=O)(=O)NCCOP(=O)(O)O)ccc43)cc2c1 (stereo not given),,,,,,,Activity (Mus musculus [12]): Toxic; Activity (Mus musculus [13]): Toxic
Nc1cc2c(c3ccc(S(=O)(=O)NCCO)cc13)C(CCl)CN2C(=O)/C=C/c1ccc(OCCN2CCOCC2)cc1 (stereo not given),Active,Active,1,Active,1,Active,
CN(C)CC(=O)Nc1ccc2[nH]c(C(=O)N3CC(CCl)c4c3cc(N)c3cc(S(=O)(=O)NCCO)ccc43)cc2c1 (stereo not given),Active,Active,1,Active,1,Active,
O=C(c1cc2cc(OCCN3CCOCC3)ccc2[nH]1)N1CC(CCl)c2c1cc([N+](=O)[O-])c1cc(S(=O)(=O)NCCO)ccc21 (stereo not given),,,,inactive,,inactive,
O=C(/C=C/c1ccc(OCCN2CCOCC2)cc1)N1CC(CCl)c2c1cc([N+](=O)[O-])c1cc(S(=O)(=O)NCCOP(=O)(O)O)ccc21 (stereo not given),,,,,,,Activity (NCI-H460 [8]): Active; Activity (NCI-H460 [14]): >1; Activity (SiHa [7]): Active
O=C(c1cc2cc(OCCCN3CCOCC3)ccc2[nH]1)N1CC(CCl)c2c1cc([N+](=O)[O-])c1cc(S(=O)(=O)NCCOP(=O)(O)O)ccc21 (stereo not given),,,,,,,Activity (NCI-H460 [8]): Active; Activity (HCT-116): Active; Activity (SiHa [7]): >1; Activity (NCI-H1299): Active; Activity (CWR22R): Active
CN(C)CCC(=O)Nc1ccc2[nH]c(C(=O)N3CC(CCl)c4c3cc(N)c3cc(S(=O)(=O)NCCO)ccc43)cc2c1 (stereo not given),Active,Active,1,Active,1,Active,
CN(C)Cc1ccc2[nH]c(C(=O)N3CC(CCl)c4c3cc([N+](=O)[O-])c3cc(S(=O)(=O)NCCO)ccc43)cc2c1 (stereo not given),,,27 - 68,,27 - 68,,
CCN(CC)CCOc1ccc2[nH]c(C(=O)N3CC(CCl)c4c3cc([N+](=O)[O-])c3cc(S(=O)(=O)NCCOP(=O)(O)O)ccc43)cc2c1 (stereo not given),,,,,,,Activity (NCI-H460 [15]): inactive; Activity (SiHa [16]): Active
